Values of other authors as cited in patent US20220409620A1, “REDUCING IMMUNOGENICITY TO PEGLOTICASE” (Horizon Pharma Rheumatology LLC, priority 2016, published 2022).

System: patients
Details: patients treated with allopurinol; cited from earlier work

Oc1ncnc2[nH]ncc12 [allopurinol]
patients developing allergic reactions: Approximately 2% | severe hypersensitivity syndrome: about 0.4%
